The record followed here is PubChem BioAssay AID1996.

Converted amounts (≈) assume the structure as drawn. A value given as a limit tells only on which side of the number the result lay.

The conditions of this data set: buffer; pH 7.4; 200.0 µM.
In turn, `COc1ccc(Nc2nccc(-c3ccc(C#N)cc3)n2)cc1` registered a kinetic solubility of 0.7 µg/mL (≈ 2.32 µM).

As to `CC(=O)N1c2ccccc2CCc2ccc(N)cc21.Cl`, the kinetic solubility is > 43.3 µg/mL.

`O=c1cc(O)c2sc(Nc3ccc(F)cc3)nc2[nH]1` returned a solubility (kinetic) of 0.3 µg/mL (≈ 1.08 µM).

`COc1ccc(-c2noc(CCCC(=O)N3CCOCC3)n2)cc1` came in with a solubility (kinetic) of 49.6 µg/mL (≈ 150 µM).

In turn, `Cc1cc(C)nc(NC=C2C(=O)OC(C)(C)OC2=O)n1` showed a solubility (kinetic) of 41 µg/mL (≈ 148 µM).

Take `NS(=O)(=O)c1ccc(CCNC(=O)C2CCCO2)cc1` (stereo not drawn): the kinetic solubility was > 44.8 µg/mL.

On to `COC(=O)c1ccsc1NC(=O)c1ccco1`, for which the solubility (kinetic) worked out at 3.2 µg/mL (≈ 12.7 µM).

For the compound `Fc1ccc2nc(C(F)(F)F)cc(N3CCOCC3)c2c1`, the kinetic solubility worked out at 11.3 µg/mL (≈ 37.6 µM).

In turn, `COc1ccc(NC(=O)C(Cc2ccccc2)n2cccc2)c(OC)c1` (stereo not drawn) registered a solubility (kinetic) of 12.9 µg/mL (≈ 36.8 µM).

As for `COc1cc2nc(CN3CCN(S(=O)(=O)c4ccc(Br)cc4)CC3)[nH]c(=O)c2cc1OC`, the kinetic solubility is 17.7 µg/mL (≈ 33.8 µM).

For `Brc1cccc(C=Nc2cccc3ncccc23)c1`, the solubility (kinetic) amounted to 12.2 µg/mL (≈ 39.2 µM).

In the case of `COc1ccccc1Nc1ccc(C(=O)O)cc1[N+](=O)[O-]`, the solubility (kinetic) is > 43.2 µg/mL.

As to `O=C(CN1C(=O)CCC1=O)Nc1nc(-c2ccc3ccccc3c2)cs1`, the kinetic solubility was determined as 1.8 µg/mL (≈ 4.93 µM).

In the case of `CCCCNC(=O)CC1NCCNC1=O` (stereo not drawn), the kinetic solubility was > 32 µg/mL.

The compound `COc1ccc(CN(C)C(C)C(=O)Nc2cccc3ccccc23)cc1` (stereo not drawn) showed a kinetic solubility of 7.8 µg/mL (≈ 22.4 µM).

With `CCCCNC(=O)CN1C(=O)NC2(CCOc3ccccc32)C1=O` (stereo not drawn), the kinetic solubility is > 49.7 µg/mL.

In the case of `CCN1CCN(C(=O)C2COc3ccccc3O2)CC1` (stereo not drawn), the solubility (kinetic) is > 41.5 µg/mL.

As to `C=CCN(c1ccccc1OC)S(=O)(=O)c1cccc(C(=O)NCc2ccco2)c1`, the kinetic solubility amounted to 1 µg/mL (≈ 2.34 µM).

Take `CC(=O)c1cccc(NC(=O)CCNC(=O)c2ccccc2Cl)c1`: the kinetic solubility was > 51.7 µg/mL.

Consider `O=C(NCCC(=O)N1CCN(C(=O)c2ccco2)CC1)c1ccccc1Cl`, for which the solubility (kinetic) was > 58.5 µg/mL.

Regarding `CC1CCCC(NC(=O)CN2C(=O)NC(Cc3c[nH]c4ccccc34)C2=O)C1C` (stereo not drawn), the solubility (kinetic) is > 59.5 µg/mL.

Take `Cc1c(Cl)cccc1NC(=O)NCCCN1CCCC1=O`: the kinetic solubility was > 46.5 µg/mL.

Regarding `COc1ccc(Nc2nc3c(C)cccn3c(=O)c2C=O)cc1`, the solubility (kinetic) is < 0.2 µg/mL.

Take `COc1ccc(CC(=O)NC(C)CCc2ccccc2)cc1OC` (stereo not drawn): the kinetic solubility is > 49.1 µg/mL.

For `CN1CN(c2cccc([N+](=O)[O-])c2)CN=C1N[N+](=O)[O-]`, the kinetic solubility is > 42 µg/mL.

In the case of `COc1cc2c(cc1OC)C(NC(=O)C(F)(F)F)C/C2=N\O` (stereo not drawn), the kinetic solubility was > 47.7 µg/mL.

Take `CCN(C(=O)COC(=O)/C(C#N)=C/c1ccc(N(C)C)cc1)C1CCS(=O)(=O)C1` (stereo not drawn): the solubility (kinetic) was determined as 4.8 µg/mL (≈ 11.4 µM).

As to `Cc1ccc(-c2cc(C(=O)N3CCN(c4ccc(O)cc4)CC3)c3ccccc3n2)cc1`, the kinetic solubility is 6.4 µg/mL (≈ 15.1 µM).

Take `CCN(CC)c1nc(N2CCN(C)CC2)nc2ccccc12.Cl`: the solubility (kinetic) is 50.1 µg/mL.

`O=C(NCc1ccccc1)Nc1cccc2ccccc12` registered a solubility (kinetic) of 0.6 µg/mL (≈ 2.17 µM).

`COc1ccc(/C=C2\SC(=S)N(CC3CCCO3)C2=O)cc1` (stereo not drawn): the kinetic solubility is < 0.7 µg/mL.

In turn, `C=CCSc1ncc(CO)n1Cc1ccccc1` returned a kinetic solubility of 37.9 µg/mL (≈ 146 µM).

As to `COc1ccccc1C(c1c(N)n(C)c(=O)n(C)c1=O)C(C)[N+](=O)[O-]` (stereo not drawn), the kinetic solubility was > 52.3 µg/mL.

Turning to `Cc1cccc(C)c1NC(=S)NCc1ccccc1`, the solubility (kinetic) is > 40.6 µg/mL.

Consider `COCCNc1oc(/C=C/c2ccccc2)nc1C#N`, for which the kinetic solubility was > 40.4 µg/mL.

Take `O=C(NCc1ccco1)c1ccc2c(c1)OCCO2`: the solubility (kinetic) was found to be 37.6 µg/mL (≈ 145 µM).

Take `COc1ccccc1/C=C/C(=O)N1CCN(S(=O)(=O)c2cccs2)CC1`: the kinetic solubility came out at 23.7 µg/mL (≈ 60.4 µM).

Take `O=C(OCC(=O)N1CCCCC1)c1cc(S(=O)(=O)N2CCOCC2)c(Cl)cc1Cl`: the solubility (kinetic) is 67.7 µg/mL (≈ 145 µM).

`CC(=O)c1ccc(NC(=S)Nc2cccc3ccccc23)cc1` had a solubility (kinetic) of 10.6 µg/mL (≈ 33.1 µM).

Compound `CCOc1ccc(NC(=O)Cc2ccc(S(=O)(=O)N3CCCCC3)cc2)cc1OCC` displayed a solubility (kinetic) of 7 µg/mL (≈ 15.7 µM).

Compound `CN(CC(=O)Nc1ccc(Cl)cc1)C(=O)Cc1c(F)cccc1Cl` had a solubility (kinetic) of 14.6 µg/mL (≈ 39.5 µM).

On to `O=C(NCc1cccs1)C1CC(=O)N(Cc2ccccc2)C1` (stereo not drawn), for which the solubility (kinetic) was > 47.2 µg/mL.

For `CCN1CCN(C(=S)NC(=O)c2cc(OC)c(OC)c(OC)c2)CC1`, the kinetic solubility was > 55.1 µg/mL.

Compound `Cc1c(/C=C(\CC(=O)O)c2nc3ccccc3s2)cc(C#N)n1C` yielded a solubility (kinetic) of 44.6 µg/mL (≈ 132 µM).

Take `O=C1CCC(C(=O)NCc2ccc3c(c2)OCO3)N1` (stereo not drawn): the solubility (kinetic) is > 39.3 µg/mL.

For `Cc1ccc(Sc2ncccc2C(N)=O)cc1`, the solubility (kinetic) is > 36.6 µg/mL.

In turn, `CSCc1ccc(C(=O)Nc2ccc(C(N)=O)cc2)cc1` displayed a solubility (kinetic) of 0.8 µg/mL (≈ 2.66 µM).

Consider `Cc1c(/C=N/O)c2ccccn2c1C(=O)c1ccc(F)cc1`, for which the solubility (kinetic) is 5.5 µg/mL (≈ 18.6 µM).

`O=C(NCc1ccccc1)c1cc2ccccc2oc1=O` showed a kinetic solubility of 2.7 µg/mL (≈ 9.67 µM).

`CS/C(=C(/C#N)S(=O)(=O)c1ccc(Cl)cc1)N1CCOCC1` came in with a kinetic solubility of 49.7 µg/mL (≈ 138 µM).

`Cc1cccc(NC(=O)c2ccccc2NC(=O)c2ccccc2)n1` showed a kinetic solubility of 1.8 µg/mL (≈ 5.43 µM).

For the compound `CCOc1ccc(CCNC(=O)Nc2ccccc2)cc1OCC`, the kinetic solubility came out at 5.9 µg/mL (≈ 18 µM).

Consider `Cc1cc(C(=O)OCC(=O)Nc2ccccc2)c(C)o1`, for which the solubility (kinetic) was 20 µg/mL (≈ 73.2 µM).

For `Cc1cc(=O)c2cc(Br)ccc2n1CC(=O)NCc1ccccc1`, the kinetic solubility came to 1.3 µg/mL (≈ 3.37 µM).

`Cc1cc(NC(=O)Nc2cccc([N+](=O)[O-])c2)no1` showed a solubility (kinetic) of 2.2 µg/mL (≈ 8.39 µM).

In the case of `O=C1CN(S(=O)(=O)c2ccccc2)CCN1`, the kinetic solubility is > 36 µg/mL.

With `CCC(=O)c1ccc(OCC(=O)NC2CCCC2)cc1`, the kinetic solubility is > 41.3 µg/mL.

For `CCOc1ccc(C2NC(=O)c3ccccc3O2)cc1OCC` (stereo not drawn), the solubility (kinetic) is 13.8 µg/mL (≈ 44 µM).

On to `O=C(Nc1ccc(SC(F)F)cc1)c1ccc(F)cc1`, for which the solubility (kinetic) is 1.3 µg/mL (≈ 4.37 µM).

In turn, `CN1CCN(c2nc3ccccn3c(=O)c2C=O)CC1.Cl` yielded a kinetic solubility of 45 µg/mL.

In the case of `Cn1cc(C=O)c2ccccc21`, the solubility (kinetic) is > 23.9 µg/mL.

Consider `CC(=O)c1cccc(NC(=O)c2nc(-c3ccccc3)oc2C)c1`, for which the kinetic solubility was found to be 12.1 µg/mL (≈ 37.8 µM).

As for `Cc1ccccc1OCC(=O)OCC(=O)NCc1ccccc1Cl`, the solubility (kinetic) came out at 14.1 µg/mL (≈ 40.5 µM).

`CCOc1ccccc1N1CCN(C(=O)c2cccs2)CC1` showed a solubility (kinetic) of 45.7 µg/mL (≈ 144 µM).

For the compound `CC1CCN(S(=O)(=O)c2ccc3[nH]c(=O)[nH]c3c2)CC1`, the solubility (kinetic) was 3.2 µg/mL (≈ 10.8 µM).

`CCOc1cc(-c2nc3ccccc3s2)ccc1O` gave a solubility (kinetic) of 1.1 µg/mL (≈ 4.05 µM).

With `Cc1cc(NC(=O)CSCC(=O)N2CCN(c3ccccc3)CC2)no1`, the solubility (kinetic) was > 56.2 µg/mL.

Turning to `CCSC1=NCCN1C(=O)c1c(-c2ccccc2Cl)noc1C`, the kinetic solubility is > 52.5 µg/mL.

For `O=c1[nH]cnc2c1ncn2[C@@H]1C[C@@H](O)[C@H](CO)O1`, the kinetic solubility was > 37.8 µg/mL.

In turn, `CC(NC(=O)/C(C#N)=C/c1ccco1)c1ccccc1` (stereo not drawn) came in with a solubility (kinetic) of 38.8 µg/mL (≈ 146 µM).

For the compound `COc1cc(CC(=O)OCC(=O)c2ccc[nH]2)cc(OC)c1OC`, the kinetic solubility was > 50 µg/mL.

Consider `CC(C)[C@H](NC(=O)N1CC(=O)Nc2ccccc21)C(=O)N1CCC[C@@H]1C(=O)O`, for which the solubility (kinetic) was > 58.3 µg/mL.

As for `Cc1ccc(S(=O)(=O)NCC(C)NC(=O)CN2CCOCC2)cc1` (stereo not drawn), the solubility (kinetic) is > 53.3 µg/mL.

The term kinetic solubility denotes the concentration staying in solution when a stock, usually in DMSO, is diluted into the medium.
